From ChEMBL document CHEMBL4715813, “Allicin-inspired pyridyl disulfides as antimicrobial agents for multidrug-resistant Staphylococcus aureus” (Eur J Med Chem, 2018)

Assays:
Type in all cases: functional
Enterococcus faecalis = experiment: Antibacterial activity against vancomycin-susceptible Enterococcus faecalis ATCC 29212 assessed as zone of inhibition by disc diffusion method; further: test concentration or dose not given here
Acinetobacter baumannii [1] = experiment: Antibacterial activity against Acinetobacter baumannii ATCC 19606 assessed as zone of inhibition by disc diffusion method; further: test concentration or dose not given here
Enterococcus faecium = experiment: Antibacterial activity against vancomycin-resistant Enterococcus faecium ATCC 700221 assessed as zone of inhibition by disc diffusion method; further: test concentration or dose not given here
[2] = system: Staphylococcus epidermidis; experiment: Antibacterial activity against Staphylococcus epidermidis ATCC 14990 assessed as zone of inhibition by disc diffusion method; further: test concentration or dose not given here
Staphylococcus aureus [3] = experiment: Antibacterial activity against community acquired methicillin-resistant Staphylococcus aureus BAA 1747 assessed as zone of inhibition by disc diffusion method; further: test concentration or dose not given here
Acinetobacter baumannii [4] = experiment: Antibacterial activity against multidrug-resistant Acinetobacter baumannii BAA 1605 assessed as zone of inhibition by disc diffusion method; further: test concentration or dose not given here
Bacillus anthracis = experiment: Antibacterial activity against Bacillus anthracis Sterne 34F2 assessed as zone of inhibition by disc diffusion method
Staphylococcus aureus [5] = experiment: Antibacterial activity against hospital acquired methicillin-resistant Staphylococcus aureus ATCC 43300 assessed as zone of inhibition by disc diffusion method; further: test concentration or dose not given here
Escherichia coli = experiment: Antibacterial activity against beta-lactam resistant Escherichia coli BAA 2326 assessed as zone of inhibition by disc diffusion method; further: test concentration or dose not given here
Staphylococcus aureus [6] = experiment: Antibacterial activity against vancomycin-intermediate resistant Staphylococcus aureus Mu50 ATCC 700699 assessed as zone of inhibition by disc diffusion method; further: test concentration or dose not given here
Pseudomonas aeruginosa = experiment: Antibacterial activity against Pseudomonas aeruginosa ATCC 15422 assessed as zone of inhibition by disc diffusion method; further: test concentration or dose not given here
Staphylococcus aureus [7] = experiment: Antibacterial activity against heterogeneous vancomycin-intermediate resistant Staphylococcus aureus Mu3 ATCC 700698 assessed as zone of inhibition by disc diffusion method; further: test concentration or dose not given here
Staphylococcus aureus [8] = experiment: Antibacterial activity against vancomycin-resistant Staphylococcus aureus HIP11714 assessed as zone of inhibition by disc diffusion method; further: test concentration or dose not given here
Staphylococcus aureus [9] = experiment: Antibacterial activity against methicillin-susceptible Staphylococcus aureus ATCC 25923 assessed as zone of inhibition by disc diffusion method; further: test concentration or dose not given here
Klebsiella pneumoniae = experiment: Antibacterial activity against multidrug-resistant Klebsiella pneumoniae ATCC 700603 assessed as zone of inhibition by disc diffusion method; further: test concentration or dose not given here
Enterobacter cloacae = experiment: Antibacterial activity against Enterobacter cloacae ATCC 23355 assessed as zone of inhibition by disc diffusion method; further: test concentration or dose not given here

| Compound | diameter of the inhibition zone (DIZ) (Enterococcus faecalis) [mm] | diameter of the inhibition zone (DIZ) (Acinetobacter baumannii [1]) [mm] | diameter of the inhibition zone (DIZ) (Enterococcus faecium) [mm] | diameter of the inhibition zone (DIZ) [2] [mm] | diameter of the inhibition zone (DIZ) (Staphylococcus aureus [3]) [mm] | diameter of the inhibition zone (DIZ) (Acinetobacter baumannii [4]) [mm] | diameter of the inhibition zone (DIZ) (Bacillus anthracis) [mm] | diameter of the inhibition zone (DIZ) (Staphylococcus aureus [5]) [mm] | diameter of the inhibition zone (DIZ) (Escherichia coli) [mm] | diameter of the inhibition zone (DIZ) (Staphylococcus aureus [6]) [mm] | diameter of the inhibition zone (DIZ) (Pseudomonas aeruginosa) [mm] | diameter of the inhibition zone (DIZ) (Staphylococcus aureus [7]) [mm] | diameter of the inhibition zone (DIZ) (Staphylococcus aureus [8]) [mm] | diameter of the inhibition zone (DIZ) (Staphylococcus aureus [9]) [mm] | diameter of the inhibition zone (DIZ) (Klebsiella pneumoniae) [mm] | diameter of the inhibition zone (DIZ) (Enterobacter cloacae) [mm] |
| --- | --- | --- | --- | --- | --- | --- | --- | --- | --- | --- | --- | --- | --- | --- | --- | --- |
| CCC(C)SSc1ccccn1 (stereo not drawn) | 0 | 0 | 0 | 20 | 0 | 0 | 23 | 0 | 0 | 0 | 0 | 0 | 0 | 0 | 0 | 0 |
| c1ccc(CSSc2ccccn2)cc1 | 14 | 9 | 14 | 38 | 20 | 0 | 38 | 28 | 0 | 23 | 0 | 19 | 30 | 26 | 0 | 0 |
| c1ccc(SSC2CCCC2)nc1 | 0 | 0 | 0 | 25 | 16 | 0 | 22 | 14 | 0 | 0 | 0 | 11 | 0 | 9 | 0 | 0 |
| O=C(O)CCSSc1ccccn1 | 0 | 0 | 0 | 10 | 14 | 0 | 24 | 14 | 0 | 15 | 0 | 15 | 21 | 16 | 0 | 0 |
| CCCCCCCCCCSSc1ccccn1 | 9 | 0 | 9 | 26 | 15 | 0 | 28 | 14 | 0 | 11 | 0 | 0 | 11 | 12 | 0 | 0 |
| CC(C)CCSSc1ccccn1 | 0 | 0 | 0 | >50 | 0 | 0 | >50 | 0 | 0 | 12 | 0 | 11 | 14 | 0 | 0 | 0 |
| CCSSc1ccccn1 | 15 | 18 | 0 | 26 | 13 | 12 | 50 | 12 | 0 | 0 | 0 | 0 | 0 | 13 | 0 | 10 |
| CC(C)C(C)SSc1ccccn1 (stereo not drawn) | 0 | 0 | 0 | 24 | 0 | 0 | 21 | 0 | 0 | 0 | 0 | 0 | 0 | 0 | 0 | 0 |
| CCCSSc1ccccn1 | 11 | 12 | 0 | 30 | 0 | 0 | 33 | 0 | 0 | 0 | 0 | 0 | 0 | 0 | 0 | 9 |
| CCCCSSc1ccccn1 | 15 | 0 | 0 | 22 | 0 | 0 | 48 | 0 | 0 | 0 | 0 | 0 | 0 | 0 | 0 | 9 |
| CSSc1ccccn1 | 23 | 21 | 0 | 21 | 21 | 15 | 48 | 25 | 12 | 13 | 0 | 12 | 12 | 20 | 0 | 10 |
| c1ccc(SSC2CCCCC2)nc1 | 0 | 0 | 0 | 24 | 14 | 0 | 26 | 12 | 0 | 0 | 0 | 18 | 0 | 11 | 0 | 0 |
| CC(C)SSc1ccccn1 | 0 | 0 | 0 | 13 | 0 | 0 | 0 | 0 | 0 | 0 | 0 | 0 | 0 | 0 | 0 | 0 |
